Drawing on the SangsterLogP compilation, this text covers logP for 100 compounds.

As a reminder, the logP is the decadic logarithm of the partition coefficient of the neutral form, usually between octanol and water. A high value points to a more lipophilic compound.

As to `Clc1ccc(Oc2ccccc2)cc1Cl`, the logP came out at 4.99. The figure for `Clc1cc(Oc2ccc(Cl)c(Cl)c2Cl)cc(Cl)c1Cl` is 6.99; for `Clc1ccc(Oc2c(Cl)ccc(Cl)c2Cl)c(Cl)c1` it is 6.06; for `Clc1ccc(Oc2cc(Cl)c(Cl)cc2Cl)c(Cl)c1` it is 6.38.

Consider `Clc1ccc(Oc2ccc(Cl)c(Cl)c2Cl)c(Cl)c1`, for which the logP worked out at 6.28. On to `Clc1cc(Oc2c(Cl)ccc(Cl)c2Cl)c(Cl)c(Cl)c1Cl`, for which the logP came to 6.98. Regarding `Clc1cc(Cl)c(Cl)c(Oc2cc(Cl)c(Cl)cc2Cl)c1`, the logP came out at 6.76.

`Clc1ccc(Oc2c(Cl)cccc2Cl)c(Cl)c1Cl` had a logP of 6.11. `Clc1cccc(Oc2ccc(Cl)cc2Cl)c1` returned a logP of 5.65. To `Clc1ccc(Oc2cccc(Cl)c2Cl)c(Cl)c1` belongs 5.88; to `Clc1ccc(Oc2ccc(Cl)c(Cl)c2Cl)cc1`, 6.14; to `Clc1ccc(Oc2c(Cl)c(Cl)c(Cl)c(Cl)c2Cl)c(Cl)c1Cl`, 7.84. To `Clc1cc(Cl)c(Cl)c(Oc2ccc(Cl)c(Cl)c2)c1` belongs 6.52. In turn, `Clc1ccc(Oc2cc(Cl)c(Cl)c(Cl)c2)cc1` gave a logP of 6.3. For `Clc1cc(Cl)cc(Oc2ccc(Cl)cc2Cl)c1`, the logP was 6.13.

`Clc1cccc(Oc2ccc(Cl)c(Cl)c2Cl)c1Cl` had a logP of 6.3. Compound `Clc1ccc(Oc2c(Cl)c(Cl)cc(Cl)c2Cl)c(Cl)c1Cl` had a logP of 7.14.

Compound `Clc1cc(Cl)c(Oc2c(Cl)c(Cl)cc(Cl)c2Cl)cc1Cl` had a logP of 7.13.

The compound `Clc1ccc(Oc2c(Cl)cc(Cl)c(Cl)c2Cl)c(Cl)c1` came in with a logP of 6.84. The figure for `Clc1ccc(Oc2ccc(Cl)c(Cl)c2Cl)c(Cl)c1Cl` is 6.82; for `Clc1ccc(Oc2c(Cl)cc(Cl)c(Cl)c2Cl)cc1` it is 6.47.

The compound `Clc1cc(Cl)c(Oc2c(Cl)cccc2Cl)cc1Cl` yielded a logP of 5.98. `Clc1ccc(Oc2c(Cl)ccc(Cl)c2Cl)cc1Cl` registered a log partition coefficient (logP) of 6.31. The figure for `Clc1ccc(Oc2ccc(Cl)c(Cl)c2)c(Cl)c1` is 6.13; for `Clc1ccc(Oc2ccc(Cl)cc2Cl)cc1` it is 5.53. With `Clc1ccc(Cl)c(Oc2cc(Cl)c(Cl)cc2Cl)c1`, the logP amounted to 6.22. The figure for `Clc1ccc(Oc2c(Cl)c(Cl)cc(Cl)c2Cl)c(Cl)c1` is 6.76; for `Clc1cc(Cl)cc(Oc2cc(Cl)c(Cl)cc2Cl)c1` it is 6.66; for `Clc1ccc(Oc2c(Cl)cccc2Cl)cc1` it is 5.3. The figure for `Clc1ccc(Oc2cc(Cl)cc(Cl)c2)cc1` is 5.77; for `Clc1ccc(Oc2cc(Cl)c(Cl)c(Cl)c2Cl)cc1` it is 6.61. The figure for `Clc1ccc(Oc2ccccc2Cl)c(Cl)c1` is 4.96.

Compound `Clc1cc(Oc2ccccc2)cc(Cl)c1Cl` showed a logP of 5.7. The compound `Clc1ccc(Oc2c(Cl)cc(Cl)c(Cl)c2Cl)cc1Cl` returned a logP of 7.07.

Take `Clc1ccc(Oc2ccccc2Cl)cc1Cl`: the logP was 5.5. The figure for `Clc1c(Cl)c(Cl)c(Oc2c(Cl)c(Cl)c(Cl)c(Cl)c2Cl)c(Cl)c1Cl` is 8.16; for `Clc1ccc(Oc2c(Cl)c(Cl)cc(Cl)c2Cl)cc1Cl` it is 6.78; for `Clc1cccc(Oc2ccc(Cl)c(Cl)c2Cl)c1` it is 6.07. Compound `Clc1ccc(Cl)c(Oc2ccccc2)c1` yielded a logP of 5.13. To `Clc1cccc(Oc2ccccc2)c1Cl` belongs 5.

The compound `Clc1cc(Oc2c(Cl)c(Cl)c(Cl)c(Cl)c2Cl)c(Cl)c(Cl)c1Cl` gave a logP of 8.07. To `Clc1ccc(Oc2ccccc2)cc1` belongs 4.7; to `Clc1ccc(Oc2ccc(Cl)c(Cl)c2)cc1Cl`, 6.36.

In turn, `Clc1ccc(Oc2c(Cl)c(Cl)cc(Cl)c2Cl)cc1` came in with a logP of 6.41. To `Clc1ccc(Oc2c(Cl)cc(Cl)cc2Cl)cc1` belongs 5.92. `Clc1cc(Cl)c(Oc2cc(Cl)c(Cl)c(Cl)c2)cc1Cl` had a logP of 7.11.

The compound `Clc1ccc(Oc2cccc(Cl)c2Cl)cc1` yielded a logP of 5.63. The figure for `Clc1ccc(Oc2cccc(Cl)c2Cl)cc1Cl` is 5.99; for `Clc1ccc(Oc2cc(Cl)c(Cl)cc2Cl)cc1Cl` it is 6.6. On to `Clc1cc(Cl)c(Oc2ccc(Cl)c(Cl)c2Cl)cc1Cl`, for which the logP worked out at 7.01. `Clc1ccc(Oc2cc(Cl)c(Cl)cc2Cl)cc1` came in with a logP of 5.99. The figure for `Clc1cccc(Cl)c1Oc1ccccc1` is 4.64; for `Clc1ccc(Oc2c(Cl)ccc(Cl)c2Cl)c(Cl)c1Cl` it is 6.65; for `Clc1ccc(Oc2c(Cl)c(Cl)c(Cl)c(Cl)c2Cl)cc1Cl` it is 7.31.

Regarding `Clc1cc(Cl)c(Cl)c(Oc2ccccc2)c1Cl`, the logP worked out at 5.82. The figure for `Clc1ccc(Cl)c(Oc2ccc(Cl)c(Cl)c2)c1` is 6.11; for `Clc1cc(Cl)c(Oc2cc(Cl)c(Cl)c(Cl)c2Cl)c(Cl)c1` it is 7.31.

Regarding `Clc1ccc(Oc2cc(Cl)cc(Cl)c2Cl)cc1`, the logP was determined as 6.21. To `Clc1cccc(Oc2cc(Cl)c(Cl)cc2Cl)c1` belongs 6.14; to `Clc1cc(Cl)c(Cl)c(Oc2ccc(Cl)c(Cl)c2Cl)c1`, 7.01; to `Clc1cc(Cl)c(Oc2cc(Cl)c(Cl)cc2Cl)cc1Cl`, 6.72. The figure for `Clc1ccc(Oc2cccc(Cl)c2)cc1` is 5.13; for `Clc1cc(Cl)c(Oc2ccc(Cl)c(Cl)c2)c(Cl)c1` it is 6.44; for `Clc1ccc(Oc2ccc(Cl)c(Cl)c2Cl)cc1Cl` it is 6.51. For the compound `Clc1ccc(Oc2c(Cl)c(Cl)c(Cl)c(Cl)c2Cl)cc1`, the logP is 6.95.

Turning to `Clc1ccc(Oc2c(Cl)cc(Cl)cc2Cl)c(Cl)c1`, the logP worked out at 6.11. `Clc1cc(Cl)cc(Oc2ccc(Cl)c(Cl)c2)c1` yielded a logP of 6.22. In turn, `Clc1ccc(Oc2ccc(Cl)cc2Cl)c(Cl)c1` registered a logP of 5.95. For `Clc1cc(Cl)c(Oc2cc(Cl)c(Cl)cc2Cl)c(Cl)c1`, the logP was 6.49. With `Clc1ccc(Cl)c(Oc2ccc(Cl)c(Cl)c2Cl)c1`, the logP was 6.51. To `Clc1cc(Cl)c(Oc2cccc(Cl)c2Cl)cc1Cl` belongs 6.22.

As to `Clc1ccc(Oc2cc(Cl)c(Cl)c(Cl)c2Cl)c(Cl)c1Cl`, the logP is 7.28. The figure for `Clc1ccc(Oc2ccccc2Cl)cc1` is 5.03; for `Clc1ccc(Oc2cc(Cl)ccc2Cl)c(Cl)c1` it is 5.78; for `Clc1ccc(Oc2cc(Cl)ccc2Cl)cc1` it is 5.66. To `Clc1ccc(Oc2ccc(Cl)c(Cl)c2)cc1` belongs 5.88. Regarding `Clc1ccccc1Oc1ccccc1`, the logP is 4.45. `Clc1ccc(Cl)c(Oc2ccccc2)c1Cl` registered a logP of 5.35.

In turn, `Clc1cc(Cl)c(Cl)c(Oc2ccccc2)c1` returned a logP of 5.62.

For `Clc1ccc(Oc2ccccc2)c(Cl)c1Cl`, the logP was found to be 5.55.

With `Clc1ccc(Oc2cc(Cl)c(Cl)c(Cl)c2Cl)c(Cl)c1`, the logP came out at 6.72.

`Clc1cc(Cl)c(Oc2c(Cl)ccc(Cl)c2Cl)cc1Cl` came in with a logP of 6.47. To `Clc1ccc(Oc2cc(Cl)c(Cl)c(Cl)c2)c(Cl)c1` belongs 6.63; to `Clc1ccc(Oc2ccc(Cl)cc2)cc1`, 5.25; to `Clc1cc(Oc2cc(Cl)c(Cl)c(Cl)c2Cl)c(Cl)c(Cl)c1Cl`, 7.78. To `Clc1cccc(Oc2ccc(Cl)c(Cl)c2)c1` belongs 5.74; to `Clc1cccc(Oc2ccccc2)c1`, 4.75; to `Clc1cc(Cl)c(Oc2ccccc2Cl)cc1Cl`, 5.97. To `Clc1ccc(Oc2c(Cl)ccc(Cl)c2Cl)cc1` belongs 5.88. As for `Clc1ccc(Oc2ccccc2)c(Cl)c1`, the logP was 4.93.

The compound `Clc1cc(Cl)c(Oc2ccccc2)c(Cl)c1` displayed a logP of 5.32. To `Clc1cc(Cl)cc(Oc2ccccc2)c1` belongs 5.21. The compound `Clc1ccc(Oc2cc(Cl)c(Cl)c(Cl)c2)cc1Cl` showed a logP of 6.83.

The compound `Clc1ccccc1Oc1ccc(Cl)c(Cl)c1Cl` showed a logP of 5.72. To `Clc1cc(Oc2c(Cl)c(Cl)cc(Cl)c2Cl)c(Cl)c(Cl)c1Cl` belongs 7.63. As for `Clc1ccc(Oc2c(Cl)cccc2Cl)cc1Cl`, the logP was found to be 5.7. To `Clc1cc(Cl)c(Oc2cc(Cl)c(Cl)c(Cl)c2Cl)cc1Cl` belongs 7.46; to `Clc1cc(Cl)c(Oc2c(Cl)c(Cl)c(Cl)c(Cl)c2Cl)cc1Cl`, 7.81; to `Clc1cc(Oc2cc(Cl)c(Cl)c(Cl)c2Cl)cc(Cl)c1Cl`, 7.55. Consider `Clc1cc(Cl)cc(Oc2ccc(Cl)c(Cl)c2Cl)c1`, for which the logP is 6.58.
